Assays:
[1] = molecular target: T1, BCL6 (Homo sapiens (Human), UniProt P41182); assay: BCL6 TR-FRET assay (BCL6-Avitag-Biotin / BCoR-Cy5 peptide); type: binding
Method in brief: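 After 30 min room-temperature preincubation of compound titrations with 2 nM biotinylated BCL6-Avitag, 100 nM Cy5-labelled BCoR peptide plus 2 nM Eu-streptavidin were added and TR-FRET read 2 h later. HEPES pH 7.5/125 mM NaCl buffer with Triton X, glutathione (or DTT) and BSA.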

[2] = molecular target: T1, BCL6; assay: Immunofluorescence high content imaging of BCL6 degradation in T47D cells; type: cell-based; conditions: for Dmax: T47D
Method in brief: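 Read-out is BCL6 immunofluorescence quantified by high-content imaging (10×, 4 fields per well) of T47D breast cancer cells. Cells were exposed for 3 days to degrader in an 11-point, 3-fold serial dilution reaching a final top concentration of 0.1 or 1 μM.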

Row | Compound | EC50 [1] | IC50 [2] | IC50 ([1]; read-out: IC50) | Dmax [2] | other results
1 | CNC(=O)c1cc2cc(Nc3nc(N4CCC(CN5CCN(c6ccc7c(c6)C(=O)N(C6CCC(=O)NC6=O)C7=O)CC5)CC4)ncc3Cl)ccc2n(C)c1=O (centres unmarked) [compound 214, 6-((5-chloro-2-(4-((4-(2-(2,6-dioxopiperidin-3-yl)-1,3-dioxoisoindolin-5-yl)piperazin-1-yl)methyl)piperidin-1-yl)pyrimidin-4-yl)amino)-N,1-dimethyl-2-oxo-1,2-dihydroquinoline-3-carboxamide] | > 100 nM | ≥ 100 nM |  |  | 
2 | Cn1c(=O)n(CCC(C)(C)O)c2cc(Nc3nc(N4CCC(OC5CC6(CCN(c7cccc8c7C(=O)N(C7CCC(=O)NC7=O)C8=O)CC6)C5)CC4)ncc3Cl)ccc21 (centres unmarked) [compound 493, 4-(2-{[1-(5-chloro-4-{[3-(3-hydroxy-3-methylbutyl)-1-methyl-2-oxo-2,3-dihydro-1H-1,3-benzodiazol-5-yl]amino}pyrimidin-2-yl)piperidin-4-yl]oxy}-7-azaspiro[3.5]nonan-7-yl)-2-(2,6-dioxopiperidin-3-yl)-2,3-dihydro-1H-isoindole-1,3-dione] |  |  | 10 to 50 nM | < 50% | 
3 | CNC(=O)COc1cc2cc(Nc3nc(N4CCC(CN5CCC6(CC5)CCN(c5ccc7c(c5)C(=O)N(C5CCC(=O)NC5=O)C7=O)CC6)CC4)ncc3Cl)ccc2n(C(C)C)c1=O (centres unmarked) [compound 495, 2-{[6-({5-chloro-2-[4-({9-[2-(2,6-dioxopiperidin-3-yl)-1,3-dioxo-2,3-dihydro-1H-isoindol-5-yl]-3,9-diazaspiro[5.5]undecan-3-yl}methyl)piperidin-1-yl]pyrimidin-4-yl}amino)-2-oxo-1-(propan-2-yl)-1,2-dihydroquinolin-3-yl]oxy}-N-methylacetamide] |  |  | < 10 nM | 50 to 70% | 
4 | CNC(=O)COc1cc2cc(Nc3nc(N4CCC(OC5CCN(c6ccc7c(c6)C(=O)N(C6CCC(=O)NC6=O)C7=O)CC5)CC4)ncc3Cl)ccc2n(C)c1=O (centres unmarked) [compound 221, 2-((6-((5-chloro-2-(4-((1-(2-(2,6-dioxopiperidin-3-yl)-1,3-dioxoisoindolin-5-yl)piperidin-4-yl)oxy)piperidin-1-yl)pyrimidin-4-yl)amino)-1-methyl-2-oxo-1,2-dihydroquinolin-3-yl)oxy)-N-methylacetamide] | > 100 nM | < 10 nM |  | 50 to 70% | 
5 | CC(=O)COc1cc2cc(Nc3nc(N4CCC(CN5CCC(Oc6ccc7c(c6)C(=O)N(C6CCC(=O)NC6=O)C7=O)CC5)C4)ncc3Cl)ccc2n(C)c1=O (centres unmarked) [compound 154, 5-((1-((1-(5-chloro-4-((1-methyl-2-oxo-3-(2-oxopropoxy)-1,2-dihydroquinolin-6-yl)amino)pyrimidin-2-yl)pyrrolidin-3-yl)methyl)piperidin-4-yl)oxy)-2-(2,6-dioxopiperidin-3-yl)isoindoline-1,3-dione] |  |  |  |  | IC50 ([1]; class symbols A-D, read-out: IC50 (nM)***): 50 to 100 nM; Dmax ([2]; maximum, class symbols A-C): < 50%; DC50 ([2]; class symbols A-D, read-out: EC50 (nM)*): 10 to 50 nM
6 | CNC(=O)COc1cc2cc(Nc3nc(N4CCN(CC5CCC6(CC5)CN(c5c(F)ccc7c5C(=O)N(C5CCC(=O)NC5=O)C7=O)C6)CC4)ncc3Cl)ccc2n(C(C)C)c1=O (centres unmarked) [compound 539, 2-{[6-({5-chloro-2-[4-({2-[2-(2,6-dioxopiperidin-3-yl)-5-fluoro-1,3-dioxo-2,3-dihydro-1H-isoindol-4-yl]-2-azaspiro[3.5]nonan-7-yl}methyl)piperazin-1-yl]pyrimidin-4-yl}amino)-2-oxo-1-(propan-2-yl)-1,2-dihydroquinolin-3-yl]oxy}-N-methylacetamide] |  |  | < 10 nM | 50 to 70% | 
7 | CNC(=O)COc1cc2cc(Nc3nc(N4CCN(CC5CCN(c6cccc7c6C(=O)N(C6CCC(=O)NC6=O)C7=O)CC5)CC4)ncc3Cl)ccc2n(CC2COC2)c1=O (centres unmarked) [compound 485, 2-{[6-({5-chloro-2-[4-({1-[2-(2,6-dioxopiperidin-3-yl)-1,3-dioxo-2,3-dihydro-1H-isoindol-4-yl]piperidin-4-yl}methyl)piperazin-1-yl]pyrimidin-4-yl}amino)-1-[(oxetan-3-yl)methyl]-2-oxo-1,2-dihydroquinolin-3-yl]oxy}-N-methylacetamide] |  |  | < 10 nM | 50 to 70% | 
8 | CNC(=O)COc1cc2cc(Nc3nc(N4CCC(CN5CCC6(CC5)CCN(c5cccc7c5C(=O)N(C5CCC(=O)NC5=O)C7=O)C6)CC4)ncc3Cl)ccc2n(C(C)C)c1=O (centres unmarked) [compound 512, 2-{[6-({5-chloro-2-[4-({2-[2-(2,6-dioxopiperidin-3-yl)-1,3-dioxo-2,3-dihydro-1H-isoindol-4-yl]-2,8-diazaspiro[4.5]decan-8-yl}methyl)piperidin-1-yl]pyrimidin-4-yl}amino)-2-oxo-1-(propan-2-yl)-1,2-dihydroquinolin-3-yl]oxy}-N-methylacetamide] |  |  | < 10 nM | 50 to 70% | 
9 | Cn1c(=O)c(Cn2cccn2)cc2cc(Nc3nc(N4CCC(CN5CCN(c6ccc7c(c6)C(=O)N(C6CCC(=O)NC6=O)C7=O)CC5)CC4)ncc3Cl)ccc21 (centres unmarked) [compound 225, 5-(4-((1-(4-((3-((1H-pyrazol-1-yl)methyl)-1-methyl-2-oxo-1,2-dihydroquinolin-6-yl)amino)-5-chloropyrimidin-2-yl)piperidin-4-yl)methyl)piperazin-1-yl)-2-(2,6-dioxopiperidin-3-yl)isoindoline-1,3-dione] | > 100 nM | ≥ 100 nM |  |  | 
10 | CNC(=O)COc1cc2cc(Nc3nc(N4CCN(CCCN5CCN(c6ccc7c(c6)C(=O)N(C6CCC(=O)NC6=O)C7=O)CC5)CC4)ncc3Cl)ccc2n(C)c1=O (centres unmarked) [compound 230, 2-((6-((5-chloro-2-(4-(3-(4-(2-(2,6-dioxopiperidin-3-yl)-1,3-dioxoisoindolin-5-yl)piperazin-1-yl)propyl)piperazin-1-yl)pyrimidin-4-yl)amino)-1-methyl-2-oxo-1,2-dihydroquinolin-3-yl)oxy)-N-methylacetamide] | < 10 nM | 10 to 50 nM |  | < 50% | 
11 | CNC(=O)COc1cc2cc(Nc3nc(N4CCC(CN5CC6CC5CN6c5ccc6c(c5)C(=O)N(C5CCC(=O)NC5=O)C6=O)CC4)ncc3Cl)ccc2n(C)c1=O (centres unmarked) [compound 204, 2-((6-((5-chloro-2-(4-((5-(2-(2,6-dioxopiperidin-3-yl)-1,3-dioxoisoindolin-5-yl)-2,5-diazabicyclo [2.2.1]heptan-2-yl)methyl)piperidin-1-yl)pyrimidin-4-yl)amino)-1-methyl-2-oxo-1,2-dihydroquinolin-3-yl)oxy)-N-methylacetamide] | 10 to 50 nM | < 10 nM |  | < 50% | 
12 | CNC(=O)COc1cc2cc(Nc3nc(N4CCCN(c5ccc6c(c5)C(=O)N(C5CCC(=O)NC5=O)C6=O)CC4)ncc3Cl)ccc2n(C)c1=O (centres unmarked) [compound 208, 2-((6-((5-chloro-2-(4-(2-(2,6-dioxopiperidin-3-yl)-1,3-dioxoisoindolin-5-yl)-1,4-diazepan-1-yl)pyrimidin-4-yl)amino)-1-methyl-2-oxo-1,2-dihydroquinolin-3-yl)oxy)-N-methylacetamide] | 50 to 100 nM | 50 to 100 nM |  | 50 to 70% | 
13 | CNC(=O)COc1cc2cc(Nc3nc(N4CCC(O[C@@H]5C[C@@H](COc6ccc7c(c6)C(=O)N(C6CCC(=O)NC6=O)C7=O)N(C)C5)CC4)ncc3Cl)ccc2n(C(C)C)c1=O (stereo partly drawn) [compound 463, 2-[(6-{[5-chloro-2-(4-{[(3R,5S)-5-({[2-(2,6-dioxopiperidin-3-yl)-1,3-dioxo-2,3-dihydro-1H-isoindol-5-yl]oxy}methyl)-1-methylpyrrolidin-3-yl]oxy}piperidin-1-yl)pyrimidin-4-yl]amino}-2-oxo-1-(propan-2-yl)-1,2-dihydroquinolin-3-yl)oxy]-N-methylacetamide] |  |  | 10 to 50 nM | < 50% | 
14 | CNC(=O)COc1cc2cc(Nc3nc(N4CCOC(CN5CCN(c6ccc7c(c6)C(=O)N(C6CCC(=O)NC6=O)C7=O)CC5)C4)ncc3Cl)ccc2n(C)c1=O (centres unmarked) [compound 272, 2-{[6-({5-chloro-2-[2-({4-[2-(2,6-dioxopiperidin-3-yl)-1,3-dioxo-2,3-dihydro-1H-isoindol-5-yl]piperazin-1-yl}methyl)morpholin-4-yl]pyrimidin-4-yl}amino)-1-methyl-2-oxo-1,2-dihydroquinolin-3-yl]oxy}-N-methylacetamide] | < 10 nM | 10 to 50 nM |  | 50 to 70% | 
15 | CNC(=O)COc1cc2cc(Nc3nc(N4CCC(N5CCC6(CCN(c7ccc8c(c7)C(=O)N(C7CCC(=O)NC7=O)C8=O)CC6)C5)CC4)ncc3Cl)ccc2n(C(C)C)c1=O (centres unmarked) [compound 521, 2-[(6-{[5-chloro-2-(4-{8-[2-(2,6-dioxopiperidin-3-yl)-1,3-dioxo-2,3-dihydro-1H-isoindol-5-yl]-2,8-diazaspiro[4.5]decan-2-yl}piperidin-1-yl)pyrimidin-4-yl]amino}-2-oxo-1-(propan-2-yl)-1,2-dihydroquinolin-3-yl)oxy]-N-methylacetamide] |  |  | < 10 nM | 50 to 70% | 
16 | CNC(=O)COc1cc2cc(Nc3nc(N4CCC(CN5CCC6(CCN(c7cccc8c7C(=O)N(C7CCC(=O)NC7=O)C8=O)CC6)C5)CC4)ncc3Cl)ccc2n(C(C)C)c1=O (centres unmarked) [compound 506, 2-{[6-({5-chloro-2-[4-({8-[2-(2,6-dioxopiperidin-3-yl)-1,3-dioxo-2,3-dihydro-1H-isoindol-4-yl]-2,8-diazaspiro[4.5]decan-2-yl}methyl)piperidin-1-yl]pyrimidin-4-yl}amino)-2-oxo-1-(propan-2-yl)-1,2-dihydroquinolin-3-yl]oxy}-N-methylacetamide] |  |  | < 10 nM | 50 to 70% | 

— patent publication US12310975B2, “Modulators of BCL6 proteolysis and associated methods of use” (Arvinas Operations, Inc., priority 2019, dated 2025)
